Measured values published in patent publication US20120040008A1, “PHARMACEUTICAL COMPOSITIONS OF METABOTROPIC GLUTAMATE 5 RECEPTOR (MGLU5) ANTAGONISTS” (priority 2010, published 2012).
In brackets after ≈: the same amount, converted by molar mass.

Assays:
Format in all cases: physicochemical
[1] = log D at pH 7.4
[2] = aqueous solubility of the free base, pH-dependent; conditions: aqueous medium
[3] = BCS classification; conditions: because of pH dependent solubility in physiological range

Cc1nc(C#Cc2ccnc(Cl)c2)c(C)n1-c1ccc(F)cc1 [2-Chloro-4-[1-(4-fluoro-phenyl)-2,5-dimethyl-1H-imidazol-4-ylethynyl]-pyridine]
logD [1]: > 3
solubility ([2]; aqueous buffer, alkaline conditions, pH 7): 0.3 µg/mL (≈ 0.000921 mM)
solubility ([2]; simulated gastric fluid, acidic conditions, pH 1): 3200 µg/mL (≈ 9.82 mM)
BCS classification [3]: BCS class 2
